# Patent US12527779B2, “Prostaglandin E2 (PGE2) EP4 receptor antagonists” (Domain Therapeutics, priority 2019, dated 2026)
# Where a name gives a salt, the structure may show the parent alone.
# Biological target: T1, human EP4 (hEP4) receptor (Homo sapiens, UniProt P35408)
# T1 construct: expressed in transfected cells; host or cells: HEK-293 T cells, transient co-transfection with polyethylenimine
# Assay: In vitro human EP4 functional antagonist activity using BRET biosensors (cAMP EPAC biosensor, TCS2510 stimulation)
# Type: cell-based
# Conditions: antagonist activity vs EC60 TCS2510, hEP4 in HEK-293 T cells
# Protocol: Examples of the present invention were tested successively for their agonist and antagonist activities on human EP4 (hEP4) receptor transiently over-expressed in HEK-293 T cells. […] The assay used to measure compound activity is based on the BRET technology. The unimolecular cAMP biosensor used to detect intracellular cAMP levels following GPCR stimulation consists of the EPAC protein fused to N- and C-terminal of Luciferase and GFP respectively.
# Cell Culture and Transfection: HEK-293 T cells are maintained in Dulbecco's Modified Eagle's Medium supplemented with 10% Foetal Calf Serum, 1% Penicillin/Streptomycin at 37° C./5% CO2. Cells are co-transfected using polyethylenimine (25 kDa linear) with two DNA plasmids encoding hEP4, EPAC fused to luciferase (BRET donor) and to GFP (BRET acceptor). After transfection, cells are cultured (40,000 cells per well) for 48 h at 37° C./5% CO2.
# BRET assay: Receptor activity is detected by changes in BRET signal. On the day of the assay, cells are rinsed and incubated in assay buffer (1.8 mM CaCl2, 1 mM MgCl2, 2.7 mM KCl, 137 mM NaCl, 0.4 mM NaH2PO4, 5.5 mM D-Glucose, 11.9 mM NaHCO3, 25 mM Hepes). Then, plates are equilibrated 1 h at 22° C. before adding compounds. Compounds and luciferase substrate are added to the cells using an automated device (Freedom Evo®, Tecan) and BRET readings are collected on EnVision (PerkinElmer) with specific filters (410 nm BW 80 nm, 515 nm BW 30 nm). Agonist and antagonist activities of compounds are consecutively evaluated on the same cell plate. Agonist activity is first measured after 5 min incubation with compound alone on the cells. Then, cells are stimulated by an EC60 TCS2510 concentration and luminescence is recorded for additional 10 min. EC60 TCS2510 concentration is the concentration giving 60% of the maximal TCS2510 response. Agonist or antagonist activities are evaluated in comparison to basal signals evoked by assay buffer or EC60 TCS2510 alone, respectively.
# For IC50 determination, a dose-response test is performed using 10 concentrations (ranging over 4.5 logs) of each compound. Dose-response curves are fitted using the sigmoidal dose-response (variable slope) analysis in GraphPad Prism software (GraphPad Software) and IC50 of antagonist activity is calculated. Dose-response experiments are performed in duplicate, in two independent experiments. IC50 values are categorized as following: A: IC50<0.1 μM; B: IC50<1 μM.
# T1 sequence (P35408 whole entry): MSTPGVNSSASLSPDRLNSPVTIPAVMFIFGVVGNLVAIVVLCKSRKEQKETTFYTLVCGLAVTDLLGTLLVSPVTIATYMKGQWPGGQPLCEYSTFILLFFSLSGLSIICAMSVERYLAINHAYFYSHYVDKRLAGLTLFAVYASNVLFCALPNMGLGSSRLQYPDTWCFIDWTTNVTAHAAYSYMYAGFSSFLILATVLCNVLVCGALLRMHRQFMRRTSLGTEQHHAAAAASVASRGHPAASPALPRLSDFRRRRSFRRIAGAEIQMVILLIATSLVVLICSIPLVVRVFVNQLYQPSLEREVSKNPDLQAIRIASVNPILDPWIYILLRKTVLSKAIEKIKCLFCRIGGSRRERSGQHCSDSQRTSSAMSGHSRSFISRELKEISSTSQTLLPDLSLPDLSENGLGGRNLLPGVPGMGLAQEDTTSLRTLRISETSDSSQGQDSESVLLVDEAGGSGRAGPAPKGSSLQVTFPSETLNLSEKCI
row,IC50,SMILES
1,< 100 nM,"Cc1cccc(OCCN(C)C2(C(=O)NC3(c4ccc(C(=O)O)cc4)CC3)CCOCC2)c1 [Example 35, 4-[1-[[4-[2-(3-Methylphenoxy)ethyl-methyl-amino]tetrahydropyran-4-carbonyl]amino]cyclopropyl]benzoic acid, hydrochloride]"
2,< 100 nM,"Cc1ccccc1OCCN(C)C1(C(=O)NC2(c3ccc(C(=O)O)cc3)CC2)CCOCC1 [Example 36, 4-[1-[[4-[2-(2-Methylphenoxy)ethyl-methyl-amino]tetrahydropyran-4-carbonyl]amino]cyclopropyl]benzoic acid, hydrochloride]"
3,< 1000 nM,"Cc1ccc(OCCN(C)C2(C(=O)NC3(c4ccc(C(=O)O)cc4)CC3)CCOCC2)cc1 [Example 37, 4-[1-[[4-[2-(4-Methylphenoxy)ethyl-methyl-amino]tetrahydropyran-4-carbonyl]amino]cyclopropyl]benzoic acid, hydrochloride]"
4,< 100 nM,"COc1cccc(OCCN(C)C2(C(=O)NC3(c4ccc(C(=O)O)cc4)CC3)CCOCC2)c1 [Example 38, 4-[1-[[4-[2-(3-Methoxyphenoxy)ethyl-methyl-amino]tetrahydropyran-4-carbonyl]amino]cyclopropyl]benzoic acid, hydrochloride]"
5,< 1000 nM,"COc1ccccc1OCCN(C)C1(C(=O)NC2(c3ccc(C(=O)O)cc3)CC2)CCOCC1 [Example 39, 4-[1-[[4-[2-(2-Methoxyphenoxy)ethyl-methyl-amino]tetrahydropyran-4-carbonyl]amino]cyclopropyl]benzoic acid, hydrochloride]"
6,< 1000 nM,"COc1ccc(OCCN(C)C2(C(=O)NC3(c4ccc(C(=O)O)cc4)CC3)CCOCC2)cc1 [Example 40, 4-[1-[[4-[2-(4-Methoxyphenoxy)ethyl-methyl-amino]tetrahydropyran-4-carbonyl]amino]cyclopropyl]benzoic acid, hydrochloride]"
7,< 100 nM,"CN(CCOc1cccc(C(F)(F)F)c1)C1(C(=O)NC2(c3ccc(C(=O)O)cc3)CC2)CCOCC1 [Example 41, 4-[1-[[4-[2-(3-Trifluoromethylphenoxy)ethyl-methyl-amino]tetrahydropyran-4-carbonyl]amino]cyclopropyl]benzoic acid, hydrochloride]"
8,< 1000 nM,"CN(CCOc1ccccc1C(F)(F)F)C1(C(=O)NC2(c3ccc(C(=O)O)cc3)CC2)CCOCC1 [Example 42, 4-[1-[[4-[2-(2-Trifluoromethylphenoxy)ethyl-methyl-amino]tetrahydropyran-4-carbonyl]amino]cyclopropyl]benzoic acid, hydrochloride]"
9,< 100 nM,"CN(CCOc1cccc(OC(F)(F)F)c1)C1(C(=O)NC2(c3ccc(C(=O)O)cc3)CC2)CCOCC1 [Example 43, 4-[1-[[4-[2-(3-Trifluoromethoxyphenoxy)ethyl-methyl-amino]tetrahydropyran-4-carbonyl]amino]cyclopropyl]benzoic acid, hydrochloride]"
10,< 100 nM,"CN(CCOc1ccccc1OC(F)(F)F)C1(C(=O)NC2(c3ccc(C(=O)O)cc3)CC2)CCOCC1 [Example 44, 4-[1-[[4-[2-(2-Trifluoromethoxyphenoxy)ethyl-methyl-amino]tetrahydropyran-4-carbonyl]amino]cyclopropyl]benzoic acid, hydrochloride]"
11,< 1000 nM,"CN(CCOc1ccc(OC(F)(F)F)cc1)C1(C(=O)NC2(c3ccc(C(=O)O)cc3)CC2)CCOCC1 [Example 45, 4-[1-[[4-[2-(4-Trifluoromethoxyphenoxy)ethyl-methyl-amino]tetrahydropyran-4-carbonyl]amino]cyclopropyl]benzoic acid, hydrochloride]"
12,< 1000 nM,"CN(CCOc1cccc(C#N)c1)C1(C(=O)NC2(c3ccc(C(=O)O)cc3)CC2)CCOCC1 [Example 46, 4-[1-[[4-[2-(3-Cyanophenoxy)ethyl-methyl-amino]tetrahydropyran-4-carbonyl]amino]cyclopropyl]benzoic acid, hydrochloride]"
13,< 1000 nM,"CN(CCOc1ccccc1)C1(C(=O)NC2(c3ccc(C(=O)O)c(F)c3)CC2)CCOCC1 [Example 49, 2-Fluoro-4-[1-[[4-[methyl(2-phenoxyethyl)amino]tetrahydropyran-4-carbonyl]amino]cyclopropyl]benzoic acid, hydrochloride]"
14,< 100 nM,"CN(CCOc1ccccc1)C1(C(=O)NC2(c3ccc(C(=O)O)cc3F)CC2)CCOCC1 [Example 50, 3-Fluoro-4-[1-[[4-[methyl(2-phenoxyethyl)amino]tetrahydropyran-4-carbonyl]amino]cyclopropyl]benzoic acid, hydrochloride]"
15,< 1000 nM,"CN(CCOc1ccccc1)C1(C(=O)NC2(c3ccc(C(=O)O)c(Cl)c3)CC2)CCOCC1 [Example 51, 2-Chloro-4-[1-[[4-[methyl(2-phenoxyethyl)amino]tetrahydropyran-4-carbonyl]amino]cyclopropyl]benzoic acid, hydrochloride]"
16,< 100 nM,"CN(CCOc1ccccc1)C1(C(=O)NC2(c3ccc(C(=O)O)cc3Cl)CC2)CCOCC1 [Example 52, 3-Chloro-4-[1-[[4-[methyl(2-phenoxyethyl)amino]tetrahydropyran-4-carbonyl]amino]cyclopropyl]benzoic acid, hydrochloride]"
17,< 1000 nM,"CN(CCOc1ccccc1)C1(C(=O)NC2(c3ccc(C(=O)O)nc3)CC2)CCOCC1 [Example 53, 5-[1-[[4-[Methyl(2-phenoxyethyl)amino]tetrahydropyran-4-carbonyl]amino]cyclopropyl]pyridine-2-carboxylic acid, hydrochloride]"
18,< 1000 nM,"CN(CCOc1ccccc1)C1(C(=O)NC2(c3ccc(C(=O)O)cn3)CC2)CCOCC1 [Example 54, 6-[1-[[4-[Methyl(2-phenoxyethyl)amino]tetrahydropyran-4-carbonyl]amino]cyclopropyl]pyridine-3-carboxylic acid, hydrochloride]"
19,< 1000 nM,"C[C@H](NC(=O)C1(NCCOc2ccccc2)CCCCC1)c1ccc(C(=O)O)cc1 [Example 55, 4-[(1S)-1-[[1-(2-Phenoxyethylamino)cyclohexanecarbonyl]amino]ethyl]benzoic acid, hydrochloride]"
20,< 100 nM,"C[C@H](NC(=O)C1(NCCOc2cccc(Cl)c2)CCCCC1)c1ccc(C(=O)O)cc1 [Example 56, 4-[(1S)-1-[[1-[2-(3-Chlorophenoxy)ethylamino]cyclohexanecarbonyl]amino]ethyl]benzoic acid, hydrochloride]"
21,< 100 nM,"C[C@H](NC(=O)C1(N(C)CCOc2cccc(Cl)c2)CCCCC1)c1ccc(C(=O)O)cc1 [Example 57, 4-[(1S)-1-[[1-[2-(3-Chlorophenoxy)ethyl-methyl-amino]cyclohexanecarbonyl]amino]ethyl]benzoic acid, hydrochloride]"
22,< 100 nM,"Cc1cccc(OCCNC2(C(=O)N[C@@H](C)c3ccc(C(=O)O)cc3)CCCCC2)c1 [Example 58, 4-[(1S)-1-[[1-[2-(3-Methylphenoxy)ethylamino]cyclohexanecarbonyl]amino]ethyl]benzoic acid, hydrochloride]"
23,< 100 nM,"Cc1cccc(OCCN(C)C2(C(=O)N[C@@H](C)c3ccc(C(=O)O)cc3)CCCCC2)c1 [Example 59, 4-[(1S)-1-[[1-[Methyl-[2-(3-methylphenoxy)ethyl]amino]cyclohexanecarbonyl]amino]ethyl]benzoic acid, hydrochloride]"
24,< 100 nM,"COc1cccc(OCCN(C)C2(C(=O)N[C@@H](C)c3ccc(C(=O)O)cc3)CCCCC2)c1 [Example 60, 4-[(1S)-1-[[1-[2-(3-Methoxyphenoxy)ethyl-methyl-amino]cyclohexanecarbonyl]amino]ethyl]benzoic acid, hydrochloride]"
25,< 100 nM,"C[C@H](NC(=O)C1(NCCOc2ccccc2)CCCC1)c1ccc(C(=O)O)cc1 [Example 61, 4-[(1S)-1-[[1-(2-Phenoxyethylamino)cyclopentanecarbonyl]amino]ethyl]benzoic acid, hydrochloride]"
26,< 100 nM,"C[C@H](NC(=O)C1(N(C)CCOc2ccccc2)CCCC1)c1ccc(C(=O)O)cc1 [Example 62, 4-[(1S)-1-[[1-[Methyl(2-phenoxyethyl)amino]cyclopentanecarbonyl]amino]ethyl]benzoic acid, hydrochloride]"
27,< 100 nM,"C[C@H](NC(=O)C1(NCCOc2cccc(Cl)c2)CCCC1)c1ccc(C(=O)O)cc1 [Example 63, 4-[(1S)-1-[[1-[2-(3-Chlorophenoxy)ethylamino]cyclopentanecarbonyl]amino]ethyl]benzoic acid, hydrochloride]"
